Reference: patent US8916567B2, “Certain crystalline hydrates, pharmaceutical compositions thereof and methods for preparation and use thereof” (Universal Technology Alliance, Inc., priority 2009, dated 2014)

Assays:
E. feacalis = assay: Minimum inhibitory concentration (MIC) in vitro, agar dilution method; format: cell-based; details: hydrate
Summary of the method: (§1)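 Agar dilution MIC per CLSI/NCCLS method against clinical isolates collected in Sichuan and Beijing, 2007-2008. Compounds dissolved in DMSO, diluted in sterile water; vancomycin and linezolid as controls. Per-strain MICs reported alongside MIC50, MIC90 and MIC range.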

E. feacium = assay: as above; format: cell-based; details: hydrate
Summary of the method: as §1

S. epidermidis MRSE = assay: as above; format: cell-based; details: hydrate
Summary of the method: as §1

S. epidermidis MSSE = assay: as above; format: cell-based; details: hydrate
Summary of the method: as §1

[1] = tested on: Staphylococcus aureus MRSA; assay: as above; format: cell-based; details: hydrate
Summary of the method: as §1

[2] = tested on: Staphylococcus aureus MSSA; assay: as above; format: cell-based; details: hydrate
Summary of the method: as §1

Staphylococcus aureus = assay: Minimum inhibitory concentration (MIC) in vitro, agar dilution method, quality control strain; format: cell-based; details: strain S. AT C C25923 (Table 7 No. 1); hydrate
Description: Hydrates Samples: • The 1/2 hydrates prepared according to Example 2; • Content (purity % wt): 99.0%; • The 1/12 hydrates prepared according to Example 253; • Content (purity % wt): 98.9%; • The 2/7 hydrates prepared according to Example 106; • Content (purity % wt): 98.8%; • The 2/5 hydrates prepared according to Example 162; • Content (purity % wt): 99.0%; • The 3/4 hydrates prepared according to Example 337; • Content (purity % wt): 98.8%; • Preparation: dissolved in DMSO, and further diluted with sterile distilled water to desired concentration. • The hydrates samples were supplied by Sichuan Beilike Biotechnology LTD.
Anhydrous Sample: • The anhydrous compounds prepared according to Example 1. • Content (purity % wt): 98.6%; • Preparation: dissolved in DMSO, and further diluted with sterile distilled water to desired concentration; • The anhydrous sample was supplied by Sichuan Beilike Biotechnology LTD.
Control Samples • Vancomycin: provided by Sichuan Beilike Biotechnology LTD, purchased from Eli Lilly Japan K.K. • Lot No.: WM16151 (production date: Apr. 10, 2007, expiration date: Apr. 9, 2009). • Specification: 500 mg/bottle; solubility (physicochemical properties): soluble in water. • Linezolid (LZ): provided by Sichuan Beilike Biotechnology LTD.
Bacteria Strains • Clinically isolated strains: clinically isolated bacterial pathogens collected in Sichuan and Beijing areas from March 2007 to May 2008. • Species include: Staphylococcus aureus MRSA, Staphylococcus aureus MSSA, S. epidermidis MRSE, S. epidermidis MSSE, E. feacalis, and E. feacium, a total of 51 strains. • Quality control strains: Staphylococcus aureus […] strain kept in Sichuan Industrial Institute of Antibiotics, purchased from the medical testing center of the Ministry of Health, China.
Experimental Method: • Measurement of the minimum inhibitory concentration (MIC) in vitro: • The minimum inhibitory concentration (MIC) of each test sample against test strains was measured by using the agar dilution method recommended by the U.S. National Committee for Clinical Laboratory Standards (CLSI/NCCIs).
Based on the CLSI/NCCL's testing standard with respect to vancomycin and linezolid (see Table 6), the minimum inhibitory concentration (MIC) values of every strain were reported, and the MIC50 (the concentration that inhibits 50% of the different strains of bacteria), MIC90 (the concentration that inhibits 90% of the different strains of bacteria), and MICrange (the range of the MIC value of the tested strains) were observed.

[3] = Solubility in different solvents according to Chinese Pharmacopeia (2005 edition); format: physicochemical; details: for Result: at the given solute:solvent ratio
Procedure: The solubility of the (S)—[N-3-(3′-fluoro-4′-(4″-phenylpiperazinyl))phenyl-2-oxo-5-oxazolelidinyl]methylacetamide hydrates was tested with different solvents, and the test results are shown in Tables 15-19. The solubility was measured according to Chinese Pharmacopeia (2005 edition).

[4] = E. feacalis (5 strains), clinically isolated
[5] = E. feacium (5 strains), clinically isolated
[6] = S. ep MRSE (10 strains), clinically isolated
[7] = S. ep MSSE (10 strains), clinically isolated
[8] = S. MRSA (10 strains), clinically isolated
[9] = S. MSSA (11 strains), clinically isolated

SMILES: CC(=O)NC[C@H]1CN(c2ccc(N3CCN(c4ccccc4)CC3)c(F)c2)C(=O)O1 [1/12 hydrate, (S)—[N-3-(3′-fluoro-4′-(4″-phenylpiperazinyl))phenyl-2-oxo-5-oxazolidinyl]methyl acetamide 1/12 hydrate]
- MIC50 (E. feacalis; [4]): 0.125 µg/mL
- MIC90 (E. feacalis; [4]): 0.25 µg/mL
- MICrange (E. feacalis; [4]): 0.06 to 0.25 µg/mL
- MIC (E. feacalis; strain Efa 116 (Table 8 No. 16)): 0.25 µg/mL
- MIC (E. feacalis; strain Efa 907 (Table 8 No. 19)): 0.06 µg/mL
- MIC50 (E. feacium; [5]): 0.5 µg/mL
- MIC90 (E. feacium; [5]): 1 µg/mL
- MICrange (E. feacium; [5]): 0.25 to 1 µg/mL
- MIC (E. feacium; strain Efm 98 (Table 8 No. 21)): 0.25 µg/mL
- MIC (E. feacium; strain Efm 171 (Table 8 No. 25)): 0.5 µg/mL
- MIC (E. feacium; strain Efm 197 (Table 8 No. 22)): 0.5 µg/mL
- MIC (E. feacium; strain Efm N3 (Table 8 No. 23)): 1 µg/mL
- MIC (E. feacium; strain Efm N4 (Table 8 No. 24)): 0.5 µg/mL
- MIC50 (S. epidermidis MRSE; [6]): 0.25 µg/mL
- MIC90 (S. epidermidis MRSE; [6]): 0.5 µg/mL
- MICrange (S. epidermidis MRSE; [6]): 0.06 to 0.5 µg/mL
- MIC (S. epidermidis MRSE; strain S. ep MRSE4 (Table 8 No. 9)): 0.125 µg/mL
- MIC (S. epidermidis MRSE; strain S. ep MRSE20 (Table 8 No. 6)): 0.25 µg/mL
- MIC (S. epidermidis MRSE; strain S. ep MRSE87 (Table 8 No. 13)): 0.25 µg/mL
- MIC (S. epidermidis MRSE; strain S. ep MRSE90 (Table 8 No. 10)): 0.125 µg/mL
- MIC (S. epidermidis MRSE; strain S. ep MRSE101 (Table 8 No. 7)): 0.06 µg/mL
- MIC (S. epidermidis MRSE; strain S. ep MRSE105 (Table 8 No. 11)): 0.25 µg/mL
- MIC (S. epidermidis MRSE; strain S. ep MRSE140 (Table 8 No. 14)): 0.5 µg/mL
- MIC (S. epidermidis MRSE; strain S. ep MRSE142 (Table 8 No. 12)): 0.25 µg/mL
- MIC (S. epidermidis MRSE; strain S. ep MRSE210 (Table 8 No. 15)): 0.25 µg/mL
- MIC (S. epidermidis MRSE; strain S. ep MRSE211 (Table 8 No. 8)): 0.25 µg/mL
- MIC50 (S. epidermidis MSSE; [7]): 0.25 µg/mL
- MIC90 (S. epidermidis MSSE; [7]): 0.5 µg/mL
- MICrange (S. epidermidis MSSE; [7]): 0.125 to 0.5 µg/mL
- MIC (S. epidermidis MSSE; strain S. ep MSSE87 (Table 7 No. 23)): 0.125 µg/mL
- MIC (S. epidermidis MSSE; strain S. ep MSSE88 (Table 8 No. 5)): 0.5 µg/mL
- MIC (S. epidermidis MSSE; strain S. ep MSSE113 (Table 7 No. 24)): 0.25 µg/mL
- MIC (S. epidermidis MSSE; strain S. ep MSSE116 (Table 7 No. 25)): 0.125 µg/mL
- MIC (S. epidermidis MSSE; strain S. ep MSSE118 (Table 8 No. 2)): 0.5 µg/mL
- MIC (S. epidermidis MSSE; strain S. ep MSSE119 (Table 7 No. 27)): 0.125 µg/mL
- MIC (S. epidermidis MSSE; strain S. ep MSSE137 (Table 8 No. 4)): 0.5 µg/mL
- MIC (S. epidermidis MSSE; strain S. ep MSSE140 (Table 8 No. 3)): 0.5 µg/mL
- MIC (S. epidermidis MSSE; strain S. ep MSSE142 (Table 7 No. 26)): 0.5 µg/mL
- MIC (S. epidermidis MSSE; strain S. ep MSSE153 (Table 8 No. 1)): 0.5 µg/mL
- MIC50 [1, 8]: 0.5 µg/mL
- MIC90 [1, 8]: 0.5 µg/mL
- MICrange [1, 8]: 0.25 to 0.5 µg/mL
- MIC ([1]; strain S. MRSA 29 (Table 7 No. 15)): 1 µg/mL
- MIC ([1]; strain S. MRSA 101 (Table 7 No. 14)): 0.5 µg/mL
- MIC ([1]; strain S. MRSA 201 (Table 7 No. 13)): 0.5 µg/mL
- MIC ([1]; strain S. MRSA B27 (Table 7 No. 21)): 0.5 µg/mL
- MIC ([1]; strain S. MRSA B105 (Table 7 No. 17)): 0.5 µg/mL
- MIC ([1]; strain S. MRSA B143 (Table 7 No. 19)): 0.5 µg/mL
- MIC ([1]; strain S. MRSA B151 (Table 7 No. 20)): 0.5 µg/mL
- MIC ([1]; strain S. MRSA B164 (Table 7 No. 16)): 0.5 µg/mL
- MIC ([1]; strain S. MRSA B199 (Table 7 No. 22)): 1 µg/mL
- MIC ([1]; strain S. MRSA B617 (Table 7 No. 18)): 0.25 µg/mL
- MIC50 [2, 9]: 0.5 µg/mL
- MIC90 [2, 9]: 0.5 µg/mL
- MICrange [2, 9]: 0.25 to 0.5 µg/mL
- MIC ([2]; strain S. MSSA 123 (Table 7 No. 3)): 0.5 µg/mL
- MIC ([2]; strain S. MSSA 187 (Table 7 No. 7)): 0.5 µg/mL
- MIC ([2]; strain S. MSSA 195 (Table 7 No. 6)): 0.5 µg/mL
- MIC ([2]; strain S. MSSA 195 (Table 7 No. 12)): 0.5 µg/mL
- MIC ([2]; strain S. MSSA 201 (Table 7 No. 11)): 0.25 µg/mL
- MIC ([2]; strain S. MSSA 232 (Table 7 No. 2)): 0.5 µg/mL
- MIC ([2]; strain S. MSSA 275 (Table 7 No. 10)): 1 µg/mL
- MIC ([2]; strain S. MSSA 466 (Table 7 No. 8)): 0.25 µg/mL
- MIC ([2]; strain S. MSSA 519 (Table 7 No. 9)): 0.5 µg/mL
- MIC ([2]; strain S. MSSA 520 (Table 7 No. 4)): 0.5 µg/mL
- MIC ([2]; strain S. MSSA 580 (Table 7 No. 5)): 0.25 µg/mL
- MIC (Staphylococcus aureus): 0.5 µg/mL
- Solubility compared with the anhydride ([3]; different solvents): sometimes more soluble than the anhydride
- Result ([3]; solvent 0.1N Hydrochloric acid): Dissolved
- Result ([3]; solvent 0.1N Sodium hydroxide): Insoluble
- Result ([3]; solvent Acetonitrile): Dissolved
- Result ([3]; solvent Ethanol): Dissolved
- Result ([3]; solvent Methanol): Dissolved
- Result ([3]; solvent Water, hydrate): Dissolved
